We go through six molecules from patent US20060276465A1, “1,2-di(cyclic) substituted benzene compounds” (Eisai R&D Management Co., Ltd., priority 2003, published 2006).

Structures can show the parent of a compound that is named as a salt.

Assay [1] concerns human peripheral blood neutrophils. Put plainly: Human peripheral blood neutrophil adhesion system (adhesion to HUVEC immobilized plate, PMA-stimulated). It counts as cell-based. The settings on record: concentration inhibiting by 50% the PMA-stimulated increase in neutrophils adhered to HUVEC. An excerpt:
As examples of the “C2-7 alkylcarbonyl” of Group W1 there may be mentioned the same ones listed above, among which C2-5 groups are preferred, and acetyl is particularly preferred.
As examples of the “C1-6 alkyl” for R^6X and R^7X there may be mentioned the same ones listed above.
As examples of the “halogen” of Group C1 there may be mentioned the same ones listed above, among which bromine, fluorine or chlorine is preferred.
As examples of the “C1-6 alkyl” of Group C1 there may be mentioned the same ones listed above, among which C1-4 groups are preferred, and methyl is particularly preferred.
As examples of the “C1-6 alkoxy” of Group C1 there may be mentioned the same ones listed above, among which C1-4 groups are preferred, and methoxy or ethoxy is particularly preferred.
As examples of the “halogen” of Group D1 and Group D2 (mentioned below) there may be mentioned the same ones listed above, among which fluorine or chlorine is preferred.
As examples of the “C1-6 alkoxy” of Group D1 and Group D2 (mentioned below) there may be mentioned the same ones listed above, among which C1-4 groups are preferred, and methoxy or ethoxy is particularly preferred.
The “C1-6 alkylthio” of Group D1 is a thio group having the aforementioned “C1-6 alkyl” bonded thereto, and as examples there may be mentioned straight-chain or branched-chain groups such as methylthio, ethylthio, propylthio, isopropylthio, […], isobutylthio, s-butylthio, t-butylthio, pentylthio, isopentylthio, 2-methylbutylthio, neopentylthio, 1-ethylpropylthio, hexylthio, isohexylthio, 4-methylpentylthio, 3-methylpentylthio, 2-methylpentylthio, 1-methylpentylthio, 3,3-dimethylbutylthio, 2,2-dimethylbutylthio, 1,1-dimethylbutylthio, 1,2-dimethylbutylthio, 1,3-dimethylbutylthio, 2,3-dimethylbutylthio, 1-ethylbutylthio or 2-ethylbutylthio, among which C1-4 groups are preferred, and methylthio or ethylthio is particularly preferred.
As examples of the “C1-6 alkylsulfonyl” of Group D1 there may be mentioned the same ones listed above, among which C1-4 groups are preferred, and methylsulfonyl or ethylsulfonyl is particularly preferred.
The “C1-6 alkylsulfinyl” of Group D1 is a sulfinyl group having the aforementioned “C1-6 alkyl” bonded thereto, as examples there may be mentioned straight-chain or branched-chain groups such as methylsulfinyl, ethylsulfinyl, propylsulfinyl, isopropylsulfinyl, […], isobutylsulfinyl, s-butylsulfinyl, t-butylsulfinyl, pentylsulfinyl, isopentylsulfinyl, 2-methylbutylsulfinyl, neopentylsulfinyl, 1-ethylpropylsulfinyl, hexylsulfinyl, isohexylsulfinyl, 4-methylpentylsulfinyl, 3-methylpentylsulfinyl, 2-methylpentylsulfinyl, 1-methylpentylsulfinyl, 3,3-dimethylbutylsulfinyl, 2,2-dimethylbutylsulfinyl, 1,1-dimethylbutylsulfinyl, 1,2-dimethylbutylsulfinyl, 1,3-dimethylbutylsulfinyl, 2,3-dimethylbutylsulfinyl, 1-ethylbutylsulfinyl or 2-ethylbutylsulfinyl, among which C1-4 groups are preferred, and methylsulfinyl or ethylsulfinyl is particularly preferred.

Assay [2] concerns Jurkat cells. The experiment in a line: Jurkat cell adhesion system (adhesion to immobilized human fibronectin, PMA-stimulated). The class given is cell-based. The note with it: concentration inhibiting by 50% the PMA-stimulated increase in adhered Jurkat cells on human fibronectin. An excerpt: The “C1-6 haloalkyl” of Group A1 and Group A2 (mentioned below) is aforementioned “C1-6 alkyl” having 1-6 aforementioned “halogen” bonded thereto, as examples there may be mentioned straight-chain or branched-chain alkyl groups such as methyl, ethyl, n-propyl, isopropyl, n-butyl, isobutyl, s-butyl, t-butyl, pentyl, isopentyl, 2-methylbutyl, neopentyl, 1-ethylpropyl, hexyl, isohexyl, 4-methylpentyl, 3-methylpentyl, 2-methylpentyl, 1-methylpentyl, 3,3-dimethylbutyl, 2,2-dimethylbutyl, 1,1-dimethylbutyl, 1,2-dimethylbutyl, 1,3-dimethylbutyl, 2,3-dimethylbutyl, 1-ethylbutyl or 2-ethylbutyl, having fluorine or chlorine bonded thereto, among which C1-4 alkyl having 1 to 3 fluorine or chlorine bonded thereto is preferred, and trifluoromethyl is particularly preferred.
As examples of the “C2-7 alkylene”, where C2-7 alkylene is permissible only in the case that a spiro union is formed together with the substituted 5- to 10-membered cycloalkyl or the substituted 5- to 10-membered cycloalkenyl, of Group A1 and Group A2 (mentioned below), there may be mentioned straight-chain or branched-chain groups such as 1,2-ethylene, trimethylene, propylene, ethylethylene, tetramethylene, pentamethylene, hexamethylene or heptamethylene, among which 1,2-ethylene, trimethylene, tetramethylene or pentamethylene is preferred, and 1,2-ethylene, tetramethylene or pentamethylene is particularly preferred.
As examples of the “halogen” of Group W1 there may be mentioned the same ones listed above, among which fluorine or chlorine is preferred.
As examples of the “C1-6 alkyl” of Group W1 there may be mentioned the same ones listed above, among which C1-4 groups are preferred, and methyl or ethyl is particularly preferred.
The “C2-7 alkoxyalkyl” of Group W1 is aforementioned “C1-6 alkyl” having the aforementioned “C1-6 alkoxy” bonded thereto, of 2 to 7 carbon (total number of carbon), and as examples there may be mentioned methoxymethyl, methoxyethyl, ethoxyethyl, methoxypropyl or propoxyethyl, among which methoxymethyl is preferred.
As examples of the “C1-6 alkoxy” of the “C1-6 alkoxy optionally substituted with a substituent selected from Group T1” of Group W1 there may be mentioned the same ones listed above, among which C1-4 groups are preferred, and methoxy, ethoxy, isopropoxy or propoxy is particularly preferred.

Assay [3] relates to Jurkat cells. Described as above. The class given is cell-based. The settings on record: concentration inhibiting by 50% the PMA-stimulated increase in the number of adhered Jurkat cells on human fibronectin; 45-60 minutes, 37° C. The protocol:
Evaluation of Compounds in Jurkat Cell Adhesion System
<Immobilization of Human Fibronectin in 96-Well Plate>
Human fibronectin (Becton Dickinson Biosciences) was diluted with phosphate-buffered saline (hereinafter abbreviated as PBS; Sigma) to 0.1-0.01 μg/ml, and the diluted solution was added to a 96-well plate (Becton Dickinson) at 50 μl/well, and allowed to stand overnight at 4° C. On the following day, the supernatant was removed from the plate, and then PBS containing 1% bovine serum albumin (hereinafter abbreviated as BSA; Sigma) was added thereto at 100 μl/well and incubation was performed at 37° C. for 2 hours in a CO2 incubator (Hirasawa).
The supernatant was removed from each plate and Jurkat cells suspended in RPMI-1640 (Sigma) containing 1 mg/ml BSA were added at 80 μl/well for 2.5×10^5 cells/well. The compound diluted to different concentrations with RPMI-1640 containing 1 mg/ml BSA was immediately added at 10 μl/well, and then 100 nM phorbol myristate acetate (hereinafter abbreviated as PMA; Sigma) in RPMI-1640 containing 1 mg/ml BSA was added at 10 μl/well and the plate was incubated in a CO2 incubator at 37° C. for 45-60 minutes. The supernatant was removed from the plate and each well was washed several times with 100 μl/well of RPMI-1640, after which 50 mM citrate buffer (pH 5.0) containing 3.75 mM p-nitrophenol-N-acetyl-β-D-glucosaminide (Sigma) and 0.25% Triton X-100 (Sigma) were added at 60 μl/well, and the mixture was placed in a CO2 incubator and incubated at 37° C. for 45 minutes. After incubation, 50 mM glycine buffer (pH 10.4) containing 5 mM EDTA was added at 90 μl/well, and the absorbance at 405 nm was measured with an EL340 Automated Microplate Reader (BIO-TEK) to determine the adhered cell count. The concentration of each compound which inhibited the increase in the number of adhered cells by the PMA-stimulation by 50% was recorded as the IC50 (μM).

The next assay deals with Balb/c mice. The experiment in a line: DSS-induced colitis model. It counts as in vivo. The note with it: male Balb/c mice; 1-3% DSS for 5-7 days; 30 mg/kg orally once a day for 5-7 successive days. An excerpt:
Evaluation of Compounds in DSS-Induced Colitis Model
A 1-3% solution of dextran sulfate sodium (hereinafter abbreviated as DSS; ICN) in purified water (Otsuka Pharmaceutical) was fed freely to 6- to 7-week-old male Balb/c mice (Charles River Japan) for 5-7 days to induce colitis. Disease Activity Index (hereinafter abbreviated as DAI) scored based on fecal hardness, blood content in feces and body weight change, the number of neutrophils infiltrating the colon and the length of the colon were used as indexes to evaluate compounds. Each compound was suspended or dissolved in an aqueous solution containing 0.5% methyl cellulose (Wako), and orally administered at 30 mg/kg once a day, for 5-7 successive days.

For assay [4], the system named is human peripheral blood neutrophils. Put plainly: Human peripheral blood neutrophil adhesion system (adhesion to immobilized HUVEC, PMA-stimulated). It counts as cell-based. The settings on record: 0.75 h, concentration inhibiting by 50% the PMA-stimulated increase in the number of adhered BCECF-AM labeled neutrophils on HUVEC immobilized plate, 45 minutes, 37° C. The protocol: Evaluation of Compounds in Human Peripheral Blood Neutrophil Adhesion System
<Preparation of Human Peripheral Blood Neutrophils>
To a plastic centrifugation tube containing 100 units of heparin sodium (Shimizu Pharmaceutical) was added 25 ml of fresh blood sampled from a healthy human. After adding and mixing therewith 8 ml of physiological saline (Otsuka Pharmaceutical) containing 6% Dextran (Nacalai), the mixture was allowed to stand at room temperature for 45 minutes for sedimentation of the erythrocytes. The resultant supernatant was transferred to another plastic centrifugation tube and combined with an equivalent volume of phosphate-buffered saline (hereinafter abbreviated as PBS; Sigma), and then centrifuged at 1600 rpm for 7 minutes at room temperature. The obtained hematocyte fraction was suspended in 4 ml of PBS, and the suspension was superposed on 4 ml of Ficoll-Paque™ PLUS (Amersham Biosciences). The resultant bilayer liquid was centrifuged at 2000 rpm for 30 minutes at room temperature, after which the supernatant was removed and the precipitate was suspended in 10 ml of PBS and centrifuged at 1200 rpm for 7 minutes, and the supernatant was removed. The resulting precipitate was suspended in 0.5 ml of PBS again, and then 10 ml of distilled water (Otsuka Pharmaceutical) was added, 0.5 ml of an aqueous solution containing 3 M NaCl was immediately added to restore isotonicity, the mixture was centrifuged at 1200 rpm for 7 minutes, and the obtained precipitate was suspended in PBS containing 1 mg/ml bovine serum albumin (hereinafter abbreviated as BSA; Sigma) again and stored in ice until being used for the experiment.
<Fluorescent Labeling of Human Peripheral Blood Neutrophils>
The obtained neutrophils were suspended in PBS containing 1 mg/ml BSA at 2×10^7 cells/ml. BCECF-AM (Dojin) was added to a final concentration of 5 μM, and the mixture was incubated at 37° C. for 45 minutes. It was then rinsed twice with PBS containing 1 mg/ml BSA by centrifugation, suspended again in PBS containing 1 mg/ml BSA at 5×10^7 cells/ml, and stored in ice until use.
<Preparation of HUVEC Immobilized Plate>
Human umbilical vein endothelial cells (hereinafter abbreviated as HUVEC) were suspended in MCDB131 medium (Chlorella Industries) containing 10% fetal calf serum and 30 μg/ml endothelial cell growth supplement (Becton Dickinson Bioscience). The suspension was added at 7.5×10^3 cells/well to a 96-well plate (Iwaki) immobilized with type I collagen, and cultured for 3 days in a CO2 incubator (Hirasawa). Upon confirming confluency of the cells, the supernatant was discarded, the plate was rinsed twice with PBS, and then PBS containing 0.1% glutaraldehyde (Kanto Kagaku) was added at 100 μl/well and the HUVECs were immobilized for 5 minutes. The supernatant was discarded and the plate was washed twice with PBS, and then PBS was added at 100 μl/well and the mixture was stored at 4° C. until use.
To 6.5 ml of RPMI-1640 medium (Sigma) containing 1 mg/ml of BSA were added 0.5 ml of a suspension of BCECF-AM labeled neutrophils at 5×10^7/ml stored in ice, which was mixed, and the mixture was added at 80 μl/well to a HUVEC immobilized plate. To this plate were immediately added 10 μl/well of a solution of the compound diluted at different concentrations with RPMI-1640 containing 1 mg/ml BSA, and 10 μl/well of 100 nM phorbol myristate acetate (hereinafter abbreviated as PMA; Sigma) in RPMI-1640 containing 1 mg/ml BSA, and the mixture was incubated in a CO2 incubator at 37° C. for 45 minutes. The supernatant was removed from the plate, which was then washed several times with RPMI-1640 at 100 μl/well, and then PBS containing 0.1% NP-40 (Calbiochem) was added thereto at 100 μl/well and the fluorescent intensity was measured with and ARVO™SX 1420 multi label counter (Wallac) to determine the number of adhered cells. […]

The IC50 is the concentration at which inhibition is half-maximal. Lower therefore signals greater potency in that assay. Take `CCCCN1CCN(c2cc3c(cc2C2CC(C)(C)CC(C)(C)C2)OCCO3)CC1` [Example 15, 1-Butyl-4-[7-(3,3,55-tetramethylcyclohexyl)-2,3-dihydrobenzo[1,4]dioxin-6-yl]piperazine hydrochloride]: the half-inhibitory concentration (IC50) in assay [1] was 11.8 µM; with Jurkat cells [2] it was 4.7 µM.
In the same order, the values of `CCCCN1CCN(c2cc3c(cc2C2CC(C)(C)CC(C)(C)C2)OCO3)CC1` [Example 14, 1-Butyl-4-[6-(3,3,5,5-tetramethylcyclohexyl)benzo[1,3]dioxol-5-yl]piperazine hydrochloride] are 22.4 µM and 7.1 µM.
Consider `CCCCN1CCN(c2cc3c(cc2C2=CC(C)(C)CC(C)(C)C2)OCO3)CC1` [Example 13, 1-Butyl-4-[6-(3,3,5,5-tetramethylcyclohex-1-enyl)benzo [1,3]dioxol-5-yl]piperazine hydrochloride], for which the 50% inhibitory concentration (IC50) in assay [1] stood at 21.7 µM; in the assay on Jurkat cells [2] it was 3.8 µM.
In the same order, the values of `CCCCN1CCN(c2cc(OCCOC)ccc2C2CC(C)(C)CC(C)(C)C2)CC1` [Example 10, 1-Butyl-4-[5-(2-methoxyethoxy)-2-(3,3,5,5-tetramethylcyclohexyl)phenyl]piperazine hydrochloride] are 7.8 µM and 3.3 µM.
Consider `CC1(C)C=C(c2ccccc2N2CCN(CC3CCOCC3)CC2)CC(C)(C)C1.Cl` [Example 22, 1-(Tetrahydropyran-4-ylmethyl)-4-[2-(3,3,5,5-tetramethylcyclohex-1-enyl)phenyl]piperazine hydrochloride], for which the figures for the 50% inhibitory concentration (IC50) (in the assay with Jurkat cells [3]; in assay [4]) were 2.2 µM and 18.1 µM, respectively. Moreover, the “improvement in comparison with the DSS control group (DAI, number of neutrophils infiltrating the colon, length of the colon)” value in the assay with Balb/c mice is listed as “particularly good improvement”.
For `CCCN1CCN(c2ccc(N3CCOCC3)cc2C2=CC(C)(C)CC(C)(C)C2)CC1.Cl` [Example 28, 4-[4-(4-Propylpiperazin-1-yl)-3-(3,3,5,5-tetramethylcyclohex-1-enyl)phenyl]morpholine hydrochloride], the IC50 worked out at 3.1 µM in the assay on Jurkat cells [3] and 8.5 µM in assay [4]. Further, the “improvement in comparison with the DSS control group (DAI, number of neutrophils infiltrating the colon, length of the colon)” value with Balb/c mice was “particularly good improvement”.
